Experimental data published in ChEMBL document CHEMBL1142909, “Synthesis and insecticidal activity of chromanone and chromone analogues of diacylhydrazines” (2007).

Columns and labels:
Format in all cases: functional
Tetranychus cinnabarinus = test: Insecticidal activity against Tetranychus cinnabarinus at 250 mg/L relative to control
Mythimna separata = test: Insecticidal activity against Mythimna separata at 500 mg/L relative to control
Nilaparvata lugens = test: Insecticidal activity against Nilaparvata lugens at 500 mg/L relative to control
Aphis = test: Insecticidal activity against Aphis medicagini at 250 mg/L relative to control

Row | Structure (SMILES) | Activity (Tetranychus cinnabarinus) | Activity (Mythimna separata) | Activity (Nilaparvata lugens) | Activity (Aphis)
1 | CC1(C)CC(=O)c2cc(C(=O)NN(C(=O)c3ccc(F)cc3)C(C)(C)C)ccc2O1 | 0% | 0% | 0% | 4%
2 | Cc1ccc2occ(C(=O)N(NC(=O)c3cccc(Cl)c3)C(C)(C)C)c(=O)c2c1 | 0% | 26.7% | 3.4% | 0%
3 | Cc1ccc2occ(C(=O)N(NC(=O)c3ccccc3)C(C)(C)C)c(=O)c2c1 | 51.7% | 60% | 0% | 0%
4 | CC1(C)CC(=O)c2cc(C(=O)NN(C(=O)c3cccc(Cl)c3)C(C)(C)C)ccc2O1 | 0% | 13.3% | 0% | 0%
5 | CC(C)(C)N(NC(=O)c1ccc(Cl)cc1)C(=O)c1coc2ccccc2c1=O | 0% | 66.7% | 0% | 2%
6 | Cc1ccccc1C(=O)N(NC(=O)c1ccc2c(c1)C(=O)CC(C)(C)O2)C(C)(C)C | 0% | 40% | 3.4% | 0%
7 | Cc1cccc(C(=O)NN(C(=O)c2coc3ccc(Cl)cc3c2=O)C(C)(C)C)c1 | 0% | 26.7% | 7.1% | 6%
8 | CC(C)(C)N(NC(=O)c1ccccc1)C(=O)c1coc2ccccc2c1=O | 0% | 0% | 7.1% | 21.1%
9 | Cc1cc(C)cc(C(=O)N(NC(=O)c2ccc3c(c2)C(=O)CC(C)(C)O3)C(C)(C)C)c1 | 66.7% | 100% | 7.1% | 8%
10 | CC(C)(C)N(NC(=O)c1cccc(Cl)c1)C(=O)c1coc2ccc(Cl)cc2c1=O | 0% | 73.3% | 0% | 16%
11 | CC1(C)CC(=O)c2cc(C(=O)NN(C(=O)c3ccccc3Cl)C(C)(C)C)ccc2O1 | 58.3% | 66.7% | 0% | 8%
12 | CC1(C)CC(=O)c2cc(C(=O)NN(C(=O)c3ccc(Cl)cc3)C(C)(C)C)ccc2O1 | 0% | 84.2% | 0% | 4.2%
13 | CC(C)(C)N(NC(=O)c1cccc(Cl)c1)C(=O)c1coc2ccccc2c1=O | 0% | 20% | 0% | 4%
14 | CC1(C)CC(=O)c2cc(C(=O)NN(C(=O)c3ccc(Br)cc3)C(C)(C)C)ccc2O1 | 0% | 6.7% | 0% | 4%
15 | CC1(C)CC(=O)c2cc(C(=O)NN(C(=O)c3ccccc3F)C(C)(C)C)ccc2O1 | 76.7% | 0% | 3.4% | 4%
16 | CC(C)(C)N(NC(=O)c1ccccc1)C(=O)c1coc2ccc(Cl)cc2c1=O | 0% | 58.3% | 18.2% | 0%
17 | CC1(C)CC(=O)c2cc(C(=O)NN(C(=O)c3ccccc3)C(C)(C)C)ccc2O1 | 0% | 80% | 0% | 8%
